In the supplement of paper PMC13207355:

Assays:
Conditions in all cases: exposure time: 72 h
[1] = test system: E21 (patient-derived glioblastoma stem cells of mesenchymal subtype); test: phenotypic distance (Euclidean, principal components) from DMSO controls (arbitrary units); higher = stronger morphological change
[2] = test system: E34 (patient-derived glioblastoma stem cells of proneural subtype); test: as above
[3] = test system: E13 (patient-derived glioblastoma stem cells of classical subtype); test: as above
[4] = test system: E31 (patient-derived glioblastoma stem cells of proneural subtype); test: as above
[5] = test system: E57 (patient-derived glioblastoma stem cells of mesenchymal subtype); test: as above
[6] = test system: FT3469 (normal neural stem cell line); test: as above
[7] = test system: E28 (patient-derived glioblastoma stem cells of classical subtype); test: as above
[8] = test system: E21; test: surviving fraction (nuclei count normalised to DMSO); higher = more cells surviving (less toxic)
[9] = test system: E34; test: as above
[10] = test system: E13; test: as above
[11] = test system: E31; test: as above
[12] = test system: E57; test: as above
[13] = test system: FT3469; test: as above
[14] = test system: E28; test: as above
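Throughout, for phenotypic distance (Euclidean, principal components) from DMSO controls: cell Painting imaging in 384-well plates, CellProfiler features reduced to at least 20 principal components, Euclidean distance versus same-plate DMSO vehicle wells (0.1% v/v), median over six images per well.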
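Throughout, for surviving fraction (nuclei count normalised to DMSO): nuclei counted by high-content imaging of Hoechst-stained cells in laminin-coated 384-well plates, relative to 0.1% DMSO vehicle wells, with staurosporine as cell-death control.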

O=C1c2c(O)ccc(O)c2C(=O)c2c(NCCNCCO)ccc(NCCNCCO)c21 [Mitoxantrone]
Conditions	phenotypic distance	surviving fraction
[1], 4.1 nM	2.94	–
[1], 12.3 nM	4.27	–
[1], 37 nM	6.11	–
[1], 111.1 nM	6.48	–
[1], 333.3 nM	6.79	–
[1], 1000 nM	6.1	–
[1], 3000 nM	5.74	–
[2], 4.1 nM	4.38	–
[2], 12.3 nM	4.62	–
[2], 37 nM	4.33	–
[2], 111.1 nM	2.84	–
[2], 333.3 nM	2.54	–
[2], 1000 nM	1.99	–
[2], 3000 nM	2.83	–
[3], 4.1 nM	4.74	–
[3], 12.3 nM	5.62	–
[3], 37 nM	6.07	–
[3], 111.1 nM	6.02	–
[3], 333.3 nM	6.18	–
[3], 1000 nM	6.49	–
[3], 3000 nM	6.08	–
[4], 4.1 nM	2.71	–
[4], 12.3 nM	3.14	–
[4], 37 nM	2.43	–
[4], 111.1 nM	2.42	–
[4], 333.3 nM	2.72	–
[4], 1000 nM	4.39	–
[4], 3000 nM	4.07	–
[5], 4.1 nM	8.68	–
[5], 12.3 nM	9.84	–
[5], 37 nM	8.24	–
[5], 111.1 nM	6.95	–
[5], 333.3 nM	7.05	–
[5], 1000 nM	7.26	–
[5], 3000 nM	6.66	–
[6], 4.1 nM	1.61	–
[6], 12.3 nM	1.65	–
[6], 37 nM	1.7	–
[6], 111.1 nM	1.36	–
[6], 333.3 nM	1.3	–
[6], 1000 nM	2.01	–
[6], 3000 nM	3.46	–
[7], 4.1 nM	3.3	–
[7], 12.3 nM	3.24	–
[7], 37 nM	3.23	–
[7], 111.1 nM	3.7	–
[7], 333.3 nM	3.72	–
[7], 1000 nM	3.17	–
[7], 3000 nM	2.86	–
[8], 4.1 nM	–	0.689
[8], 12.3 nM	–	0.608
[8], 37 nM	–	0.448
[8], 111.1 nM	–	0.229
[8], 333.3 nM	–	0.207
[8], 1000 nM	–	0.209
[8], 3000 nM	–	0.189
[9], 4.1 nM	–	0.578
[9], 12.3 nM	–	0.494
[9], 37 nM	–	0.578
[9], 111.1 nM	–	0.615
[9], 333.3 nM	–	0.547
[9], 1000 nM	–	0.564
[9], 3000 nM	–	0.56
[10], 4.1 nM	–	0.526
[10], 12.3 nM	–	0.451
[10], 37 nM	–	0.422
[10], 111.1 nM	–	0.338
[10], 333.3 nM	–	0.279
[10], 1000 nM	–	0.23
[10], 3000 nM	–	0.219
[11], 4.1 nM	–	0.243
[11], 12.3 nM	–	0.219
[11], 37 nM	–	0.311
[11], 111.1 nM	–	0.216
[11], 333.3 nM	–	0.218
[11], 1000 nM	–	0.127
[11], 3000 nM	–	0.142
[12], 4.1 nM	–	0.245
[12], 12.3 nM	–	0.2
[12], 37 nM	–	0.174
[12], 111.1 nM	–	0.165
[12], 333.3 nM	–	0.161
[12], 1000 nM	–	0.159
[12], 3000 nM	–	0.17
[13], 4.1 nM	–	0.595
[13], 12.3 nM	–	0.645
[13], 37 nM	–	0.657
[13], 111.1 nM	–	0.604
[13], 333.3 nM	–	0.639
[13], 1000 nM	–	0.604
[13], 3000 nM	–	0.362
[14], 4.1 nM	–	0.476
[14], 12.3 nM	–	0.359
[14], 37 nM	–	0.358
[14], 111.1 nM	–	0.262
[14], 333.3 nM	–	0.313
[14], 1000 nM	–	0.286
[14], 3000 nM	–	0.264

CN(c1nccc(=O)[nH]1)C1CCN(c2nc3ccccc3n2Cc2ccc(F)cc2)CC1 [Mizolastine]
Conditions	phenotypic distance	surviving fraction
[1], 4.1 nM	0.704	–
[1], 12.3 nM	0.468	–
[1], 37 nM	0.444	–
[1], 111.1 nM	0.765	–
[1], 333.3 nM	0.434	–
[1], 1000 nM	0.621	–
[1], 3000 nM	0.543	–
[2], 4.1 nM	0.476	–
[2], 12.3 nM	1.2	–
[2], 37 nM	1.86	–
[2], 111.1 nM	0.66	–
[2], 333.3 nM	0.677	–
[2], 1000 nM	0.599	–
[2], 3000 nM	0.698	–
[3], 4.1 nM	0.868	–
[3], 12.3 nM	0.459	–
[3], 37 nM	0.939	–
[3], 111.1 nM	0.783	–
[3], 333.3 nM	0.597	–
[3], 1000 nM	0.555	–
[3], 3000 nM	0.59	–
[4], 4.1 nM	0.567	–
[4], 12.3 nM	0.802	–
[4], 37 nM	1.44	–
[4], 111.1 nM	0.455	–
[4], 333.3 nM	0.814	–
[4], 1000 nM	0.555	–
[4], 3000 nM	0.652	–
[5], 4.1 nM	0.544	–
[5], 12.3 nM	0.715	–
[5], 37 nM	3.66	–
[5], 111.1 nM	0.766	–
[5], 333.3 nM	0.54	–
[5], 1000 nM	0.624	–
[5], 3000 nM	0.531	–
[6], 4.1 nM	0.538	–
[6], 12.3 nM	1.14	–
[6], 37 nM	0.386	–
[6], 111.1 nM	0.797	–
[6], 333.3 nM	0.453	–
[6], 1000 nM	0.544	–
[6], 3000 nM	0.613	–
[7], 4.1 nM	0.853	–
[7], 12.3 nM	5.48	–
[7], 37 nM	0.52	–
[7], 111.1 nM	0.84	–
[7], 333.3 nM	0.698	–
[7], 1000 nM	0.693	–
[7], 3000 nM	0.97	–
[8], 4.1 nM	–	1
[8], 12.3 nM	–	1
[8], 37 nM	–	0.949
[8], 111.1 nM	–	1.03
[8], 333.3 nM	–	1.03
[8], 1000 nM	–	1.01
[8], 3000 nM	–	1.09
[9], 4.1 nM	–	1.16
[9], 12.3 nM	–	0.983
[9], 37 nM	–	1.01
[9], 111.1 nM	–	0.939
[9], 333.3 nM	–	1.04
[9], 1000 nM	–	1.1
[9], 3000 nM	–	0.941
[10], 4.1 nM	–	0.797
[10], 12.3 nM	–	0.967
[10], 37 nM	–	0.849
[10], 111.1 nM	–	0.869
[10], 333.3 nM	–	0.989
[10], 1000 nM	–	0.896
[10], 3000 nM	–	0.956
[11], 4.1 nM	–	1.01
[11], 12.3 nM	–	1.16
[11], 37 nM	–	0.825
[11], 111.1 nM	–	1.19
[11], 333.3 nM	–	0.944
[11], 1000 nM	–	1.18
[11], 3000 nM	–	0.875
[12], 4.1 nM	–	0.99
[12], 12.3 nM	–	1.02
[12], 37 nM	–	1.06
[12], 111.1 nM	–	0.976
[12], 333.3 nM	–	1.05
[12], 1000 nM	–	1.05
[12], 3000 nM	–	1.06
[13], 4.1 nM	–	1.15
[13], 12.3 nM	–	0.975
[13], 37 nM	–	0.987
[13], 111.1 nM	–	1.06
[13], 333.3 nM	–	1.03
[13], 1000 nM	–	0.94
[13], 3000 nM	–	1.15
[14], 4.1 nM	–	1.08
[14], 12.3 nM	–	1.1
[14], 37 nM	–	1.1
[14], 111.1 nM	–	1.19
[14], 333.3 nM	–	1.06
[14], 1000 nM	–	1.13
[14], 3000 nM	–	0.972

Oc1ccc(OCc2ccccc2)cc1 [Monobenzone]
Conditions	phenotypic distance	surviving fraction
[1], 4.1 nM	0.533	–
[1], 12.3 nM	0.297	–
[1], 37 nM	0.463	–
[1], 111.1 nM	0.324	–
[1], 333.3 nM	0.511	–
[1], 1000 nM	0.562	–
[1], 3000 nM	1.35	–
[2], 4.1 nM	0.726	–
[2], 12.3 nM	0.858	–
[2], 37 nM	0.945	–
[2], 111.1 nM	0.661	–
[2], 333.3 nM	0.606	–
[2], 1000 nM	0.28	–
[2], 3000 nM	0.624	–
[3], 4.1 nM	0.73	–
[3], 12.3 nM	0.686	–
[3], 37 nM	0.829	–
[3], 111.1 nM	0.608	–
[3], 333.3 nM	0.563	–
[3], 1000 nM	0.694	–
[3], 3000 nM	1.62	–
[4], 4.1 nM	0.6	–
[4], 12.3 nM	0.685	–
[4], 37 nM	0.704	–
[4], 111.1 nM	0.686	–
[4], 333.3 nM	0.51	–
[4], 1000 nM	0.575	–
[4], 3000 nM	1.87	–
[5], 4.1 nM	0.522	–
[5], 12.3 nM	0.58	–
[5], 37 nM	1.19	–
[5], 111.1 nM	1.86	–
[5], 333.3 nM	0.673	–
[5], 1000 nM	0.736	–
[5], 3000 nM	3.91	–
[6], 4.1 nM	1.23	–
[6], 12.3 nM	0.456	–
[6], 37 nM	0.649	–
[6], 111.1 nM	0.576	–
[6], 333.3 nM	1.04	–
[6], 1000 nM	0.884	–
[6], 3000 nM	1.07	–
[7], 4.1 nM	0.962	–
[7], 12.3 nM	0.487	–
[7], 37 nM	0.802	–
[7], 111.1 nM	0.466	–
[7], 333.3 nM	0.474	–
[7], 1000 nM	0.692	–
[7], 3000 nM	1.42	–
[8], 4.1 nM	–	1.01
[8], 12.3 nM	–	1.02
[8], 37 nM	–	0.985
[8], 111.1 nM	–	0.974
[8], 333.3 nM	–	1.01
[8], 1000 nM	–	0.951
[8], 3000 nM	–	0.932
[9], 4.1 nM	–	1.13
[9], 12.3 nM	–	0.972
[9], 37 nM	–	0.966
[9], 111.1 nM	–	1.13
[9], 333.3 nM	–	0.984
[9], 1000 nM	–	1.12
[9], 3000 nM	–	1.07
[10], 4.1 nM	–	1.02
[10], 12.3 nM	–	1.11
[10], 37 nM	–	0.916
[10], 111.1 nM	–	1.04
[10], 333.3 nM	–	0.962
[10], 1000 nM	–	1.06
[10], 3000 nM	–	0.738
[11], 4.1 nM	–	1.17
[11], 12.3 nM	–	1.1
[11], 37 nM	–	1.24
[11], 111.1 nM	–	1.19
[11], 333.3 nM	–	1.04
[11], 1000 nM	–	1.06
[11], 3000 nM	–	0.603
[12], 4.1 nM	–	1.07
[12], 12.3 nM	–	1.06
[12], 37 nM	–	1.14
[12], 111.1 nM	–	1.05
[12], 333.3 nM	–	0.979
[12], 1000 nM	–	0.963
[12], 3000 nM	–	0.842
[13], 4.1 nM	–	1.35
[13], 12.3 nM	–	1.12
[13], 37 nM	–	1.14
[13], 111.1 nM	–	0.963
[13], 333.3 nM	–	1.02
[13], 1000 nM	–	0.999
[13], 3000 nM	–	0.689
[14], 4.1 nM	–	1.09
[14], 12.3 nM	–	1.17
[14], 37 nM	–	1.12
[14], 111.1 nM	–	1.02
[14], 333.3 nM	–	1.04
[14], 1000 nM	–	1.04
[14], 3000 nM	–	0.875
